Data as given in patent US12612424B2, “HPK1 inhibitors and uses thereof” (Regor Pharmaceuticals, Inc., priority 2019, dated 2026).
Where two headings read alike, the source gives them in different places.

Target: HPK1 (Homo sapiens, UniProt Q92918)
Assay: HPK1 biochemical assay (ADP-GLO Kinase Assay)
Summary of the method: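 HPK1 (0.6 ng/μL final) activity was followed with MBP substrate and 10 μM ATP in Tris pH 7.5/MgCl2/BSA/DTT buffer, measured by ADP-Glo luminescence. Compounds were tested as 3-fold dilutions from 10 μM. IC50 came from a three-parameter logistic fit, with inhibition normalised to high/low controls.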

[1] = B*: testing performed in a first testing facility, read-out: HPK1 IC50 (nM) Relative, B*
[2] = N*: testing performed in a second testing facility, read-out: HPK1 IC50 (nM) Relative, N*

Chain of HPK1 (Q92918 whole entry): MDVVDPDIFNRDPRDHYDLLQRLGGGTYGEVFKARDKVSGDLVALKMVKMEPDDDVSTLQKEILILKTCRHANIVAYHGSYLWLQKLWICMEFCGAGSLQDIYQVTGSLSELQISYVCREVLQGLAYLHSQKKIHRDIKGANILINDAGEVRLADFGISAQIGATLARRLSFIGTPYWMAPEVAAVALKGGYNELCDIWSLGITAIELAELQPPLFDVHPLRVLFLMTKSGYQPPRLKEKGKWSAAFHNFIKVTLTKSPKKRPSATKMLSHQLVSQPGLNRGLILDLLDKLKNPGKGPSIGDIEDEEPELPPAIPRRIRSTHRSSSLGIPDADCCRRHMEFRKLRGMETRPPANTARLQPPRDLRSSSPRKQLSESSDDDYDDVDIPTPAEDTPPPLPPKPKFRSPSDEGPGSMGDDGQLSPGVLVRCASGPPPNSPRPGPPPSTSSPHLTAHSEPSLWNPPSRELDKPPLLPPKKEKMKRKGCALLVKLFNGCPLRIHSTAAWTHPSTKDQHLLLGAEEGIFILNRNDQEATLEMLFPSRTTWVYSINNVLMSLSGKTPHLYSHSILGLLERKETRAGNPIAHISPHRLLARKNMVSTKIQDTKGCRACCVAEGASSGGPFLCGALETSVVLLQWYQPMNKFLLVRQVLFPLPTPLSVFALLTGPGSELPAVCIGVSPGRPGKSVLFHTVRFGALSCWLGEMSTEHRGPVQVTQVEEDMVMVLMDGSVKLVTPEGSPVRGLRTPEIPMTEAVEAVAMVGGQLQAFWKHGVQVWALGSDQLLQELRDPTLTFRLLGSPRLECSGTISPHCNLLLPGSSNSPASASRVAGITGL

IC50 [1]	IC50 [2]	Compound
≤ 100 nM	≤ 100 nM	COc1cc2c(cc1Nc1ncc(Cl)c(-n3cc(P(C)(C)=O)c4ccccc43)n1)CN(C)CC2 [Example 1, (1-(5-Chloro-2-((6-methoxy-2-methyl-1,2,3,4-tetrahydroisoquinolin-7-yl)amino)pyrimidin-4-yl)-1H-indol-3-yl)dimethylphosphine oxide]
≤ 100 nM	≤ 100 nM	COc1nc2c(cc1Nc1ncc(Cl)c(N3CCc4ccccc43)n1)CN(C)CC2 [Example 19, N-(5-chloro-4-(indolin-1-yl)pyrimidin-2-yl)-2-methoxy-6-methyl-5,6,7,8-tetrahydro-1,6-naphthyridin-3-amine]
≤ 100 nM	–	COc1cc2c(cc1Nc1ncc(Cl)c(N3CCc4cc(F)ccc43)n1)CN(C)CC2 [Example 20, N-(5-chloro-4-(5-fluoroindolin-1-yl)pyrimidin-2-yl)-6-methoxy-2-methyl-1,2,3,4-tetrahydroisoquinolin-7-amine]
≤ 100 nM	–	COc1cc2c(cc1Nc1ncc(Cl)c(N3CCc4ccc(F)cc43)n1)CN(C)CC2 [Example 21, N-(5-chloro-4-(6-fluoroindolin-1-yl)pyrimidin-2-yl)-6-methoxy-2-methyl-1,2,3,4-tetrahydroisoquinolin-7-amine]
≤ 100 nM	–	COc1cc2c(cc1Nc1ncc(Cl)c(N3CCc4ccccc43)n1)CN(C(C)C)CC2 [Example 22, N-(5-chloro-4-(indolin-1-yl)pyrimidin-2-yl)-2-isopropyl-6-methoxy-1,2,3,4-tetrahydroisoquinolin-7-amine]
≤ 100 nM	–	COc1cc2c(cc1Nc1ncc(Cl)c(N3CCc4ccccc43)n1)CNCC2 [Example 23, N-(5-chloro-4-(indolin-1-yl)pyrimidin-2-yl)-6-methoxy-1,2,3,4-tetrahydroisoquinolin-7-amine]
≤ 100 nM	–	COc1cc2c(cc1Nc1ncc(Cl)c(-n3ncc4ccccc43)n1)CN(C)CC2 [Example 24, N-(5-Chloro-4-(1H-indazol-1-yl)pyrimidin-2-yl)-6-methoxy-2-methyl-1,2,3,4-tetrahydroisoquinolin-7-amine]
≤ 100 nM	–	COc1cc2c(cc1Nc1ncc(Cl)c(N3CC(C)(C)c4ccccc43)n1)CN(C)CC2 [Example 25, N-(5-Chloro-4-(3,3-dimethylindolin-1-yl)pyrimidin-2-yl)-6-methoxy-2-methyl-1,2,3,4-tetrahydroisoquinolin-7-amine]
≤ 100 nM	≤ 100 nM	COc1nc2c(cc1Nc1ncc(Cl)c(N3CCc4ncccc43)n1)CN(C)CC2 [Example 29, N-(5-Chloro-4-(2,3-dihydro-1H-pyrrolo[3,2-b]pyridin-1-yl)pyrimidin-2-yl)-2-methoxy-6-methyl-5,6,7,8-tetrahydro-1,6-naphthyridin-3-amine]
≤ 100 nM	–	COc1cc2c(cc1Nc1ncc(Cl)c(N3CC(C(=O)O)c4ccccc43)n1)CN(C)CC2 (centres unmarked) [Example 32, 1-(5-Chloro-2-((6-methoxy-2-methyl-1,2,3,4-tetrahydroisoquinolin-7-yl)amino)pyrimidin-4-yl)indoline-3-carboxylic acid]
≤ 100 nM	–	COc1cc2c(cc1Nc1ncc(Cl)c(N3CC(C(N)=O)c4ccccc43)n1)CN(C)CC2 (centres unmarked) [Example 33, 1-(5-Chloro-2-((6-methoxy-2-methyl-1,2,3,4-tetrahydroisoquinolin-7-yl)amino)pyrimidin-4-yl)indoline-3-carboxamide]
≤ 100 nM	–	COc1cc2c(cc1Nc1ncc(Cl)c(-n3cc(C(N)=O)c4ccccc43)n1)CN(C)CC2 [Example 34]
≤ 100 nM	–	COc1cc2c(cc1Nc1ncc(Cl)c(-n3cc(C(=O)O)c4ccccc43)n1)CN(C)CC2 [Example 35]
≤ 100 nM	≤ 100 nM	COc1cc2c(cc1Nc1ncc3ccn(-c4ccccc4)c3n1)CN(C)CC2 [Example 36, 6-methoxy-2-methyl-N-(7-phenyl-7H-pyrrolo[2,3-d]pyrimidin-2-yl)-1,2,3,4-tetrahydroisoquinolin-7-amine]
≤ 100 nM	≤ 100 nM	COc1cc2c(cc1Nc1ncc3ccn(-c4ccccn4)c3n1)CN(C)CC2 [Example 37, 6-Methoxy-2-methyl-N-(7-(pyridin-2-yl)-7H-pyrrolo[2,3-d]pyrimidin-2-yl)-1,2,3,4-tetrahydroisoquinolin-7-amine]
